Activity calls are given as the source filed them. The rule behind the calls is not given here.
How the values were obtained:
[1] = tested on: Mycobacterium tuberculosis; assay: Binding affinity to N-terminal polyhis-tagged Mycobacterium tuberculosis ICL1 C191S mutant expressed in Escherichia coli BL21 (DE3) assessed as compound-protein covalent adduct formation by measuring molecular mass at 1 mM after 12 hrs in presence of MgCl2 by LC-MS analysis
[2] = Binding affinity to N-terminal polyhis-tagged Mycobacterium tuberculosis ICL1 C191S mutant expressed in Escherichia coli BL21 (DE3) in presence of MgCl2 by NMR binding analysis

Question: With C=C(CC(=O)O)C(=O)O [ITACONATE] as the compound, how does the Activity [1] read?
Answer: Its Activity is “Active”.

Question: What about the Kd [2] of the same compound?
Answer: The Kd was 155 µM.

Reference: ChEMBL document CHEMBL4680069, “Itaconate is a covalent inhibitor of the Mycobacterium tuberculosis isocitrate lyase” (RSC Med Chem, 2021)
